The target in assay [1] is T1, Transcription factor HES-1 (Homo sapiens, UniProt Q14469).
T1 sequence (Q14469 whole entry): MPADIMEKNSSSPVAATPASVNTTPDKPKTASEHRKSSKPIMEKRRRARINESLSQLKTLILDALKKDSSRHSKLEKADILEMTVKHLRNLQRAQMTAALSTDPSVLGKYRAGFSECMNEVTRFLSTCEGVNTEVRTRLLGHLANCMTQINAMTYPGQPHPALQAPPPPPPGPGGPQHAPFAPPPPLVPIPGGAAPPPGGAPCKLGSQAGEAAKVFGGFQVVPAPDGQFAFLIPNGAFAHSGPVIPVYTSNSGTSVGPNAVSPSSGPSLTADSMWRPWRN
The assay is described as follows: Inhibition of Cy3-tagged human recombinant full length HES1 (1 to 280 amino acid residues)/Cy3-GST-tagged human recombinant full length HES1 (1 to 280 amino acid residues) dimer formation expressed in Escherichia coli JM109 after 1 hr by microplate reader assay.

Assay [2] in a line: Inhibition of Cy3-GST-tagged human recombinant full length FANCF/Cy3-tagged rat Hes1 (3 to 281 amino acid residues) interaction expressed in Escherichia coli JM109 at 50 uM after 1 hrs by microplate reader assay.
For assay [3], the target named is T2, Fanconi anemia group F protein/Transcription factor HES-1 (Homo sapiens) (UniProt Q9NPI8+Q14469). The assay is described as follows: (§1) Inhibition of Cy3-GST-tagged human recombinant full length FANCF/Cy3-tagged human full length HES1 (1 to 280 amino acid residues) interaction expressed in Escherichia coli JM109 after 1 hrs by microplate reader assay.
The target of assay [4] is T3, Fanconi anemia group F protein/Transcription factor HES-1 (Homo sapiens, UniProt Q14469+Q9NPI8).
T3 sequence (Q9NPI8 whole entry): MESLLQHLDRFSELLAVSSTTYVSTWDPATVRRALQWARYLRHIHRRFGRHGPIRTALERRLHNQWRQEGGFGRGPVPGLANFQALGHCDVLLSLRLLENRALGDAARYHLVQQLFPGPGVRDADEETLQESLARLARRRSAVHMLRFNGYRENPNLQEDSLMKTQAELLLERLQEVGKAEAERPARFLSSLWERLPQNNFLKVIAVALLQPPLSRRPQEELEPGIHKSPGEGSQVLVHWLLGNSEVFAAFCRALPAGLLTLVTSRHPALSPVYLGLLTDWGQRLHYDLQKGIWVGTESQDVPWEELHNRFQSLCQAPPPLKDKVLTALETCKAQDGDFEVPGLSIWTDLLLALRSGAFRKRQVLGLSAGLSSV
T3 sequence (Q14469 whole entry): T1 sequence (Q14469 whole entry)
Described as §1.

For assay [5], the target named is T2, Fanconi anemia group F protein/Transcription factor HES-1 (Homo sapiens). The assay is described as follows: Inhibition of Cy3-GST-tagged human recombinant full length FANCF/Cy3-tagged human full length HES1 (1 to 280 amino acid residues) interaction expressed in Escherichia coli JM109 at 10 uM after 1 hrs by microplate reader assay.
Assay [6] in a line: Inhibition of GST-tagged recombinant mouse beta-catenin (128 to 683 amino acid residues)/human recombinant TCF4E (1 to 100 amino acid residues) complex formation expressed in Escherichia coli JM109 after 1 hrs by microplate reader assay.
Assay [7] is described as follows: Reduction of colony formation in wild type mouse bone marrow cells at 50 uM after 10 to 14 days. In kind it is functional, Bone marrow cell. Set-up: scale not given: the % may be the effect or the level left.
Assay [8] relates to Bone marrow cell. The assay is described as follows: Reduction of colony formation in Fanconi A deficient mouse bone marrow cells at 50 uM after 10 to 14 days. The format is functional, cell-based.
Assay [9] has as its system Bone marrow cell. The experiment in a line: Reduction of colony formation in Fanconi C deficient mouse bone marrow cells at 50 uM after 10 to 14 days. The format is functional, cell-based.

Activity calls are given as the source filed them. The rule behind the calls is not given here.

Take `C[C@@H]1O[C@@H](OC[C@H]2O[C@@H](Oc3c(-c4ccc(O)c(O)c4)oc4cc(O)cc(O)c4c3=O)[C@H](O)[C@@H](O)[C@H]2O)[C@H](O)[C@H](O)[C@H]1O`: the IC50 in assay [1] is greater than 100 µM; in [4] it was 35.8 µM; in [6], greater than 100 µM. For the same molecule, the inhibition result in assay [2] was “Active”. The results for the inhibition entry in assay [3] and in assay [5] were “Dose-dependent effect” and 40%, respectively.

Regarding `C[C@@H]1O[C@@H](OC[C@H]2O[C@@H](Oc3c(-c4ccc(O[C@@H]5O[C@@H](C)[C@H](O)[C@@H](O)[C@H]5O)c(O)c4)oc4cc(O)cc(O)c4c3=O)[C@H](O)[C@@H](O)[C@@H]2O)[C@H](O)[C@H](O)[C@H]1O`, the IC50 in assay [1] was 25.7 µM; in assay [4], 23.6 µM; in assay [6], greater than 100 µM. The molecule also registered an Activity in assay [7] of 40%. The inhibition entry in [2] was “Active”. Moreover, the inhibition result in [3] was “Dose-dependent effect”; in assay [5] it was 40%. The result in the assay with Bone marrow cell [8] was Active. Further, the outcome in the assay with Bone marrow cell [9] was inactive.

As for `C[C@@H]1O[C@@H](OC[C@H]2O[C@@H](Oc3c(-c4ccc(O[C@@H]5O[C@@H](C)[C@H](O)[C@@H](O)[C@H]5O)cc4)oc4cc(O)cc(O)c4c3=O)[C@H](O)[C@@H](O)[C@@H]2O)[C@H](O)[C@H](O)[C@H]1O`, the inhibition entry in assay [2] is “Active”. Further, the inhibition entry in assay [3] is “Dose-dependent effect”.

The IC50 is the midpoint of a concentration-inhibition curve. As usually defined, the inhibition is the percentage by which the read-out fell short of the control.
